Assay [1] addresses human histamine receptor type 1 (Homo sapiens, UniProt P35367). Briefly: In vitro histamine receptor cell-based assay, H1R antagonist (aequorin bioluminescence). To be noted: CHO-K1 cells expressing human H1 receptor and aequorin; histamine at EC80. An excerpt: (§1) In Vitro Histamine Receptor Cell-Based Assays
(§2) The assays are based on an aequorin dependent bioluminescence signal, generated by receptor signaling through Gq/11 or a similarly acting G protein and a resulting transient calcium flux. Doubly-transfected, stable CHO-K1 cell lines expressing human histamine receptor type 1 or type 4, mitochondrion-targeted aequorin, and (histamine type 4 receptor only) human G protein Gα16 are obtained from Perkin-Elmer (Histamine H1 cell line, catalog ES-390-A; Histamine H4 cell line, catalog ES-393-A). Cells are maintained on conventional culture plasticware in F12 (Ham's) growth medium containing 10% (vol./vol.) fetal bovine serum, penicillin (100 IU/ml), streptomycin (0.1 mg/ml), zeocin (0.25 mg/ml) and geneticin (0.40 mg/ml), as per the manufacturer's instructions (all components from Invitrogen, Inc.). One day prior to assay, the growth medium is replaced with the same, excluding zeocin and geneticin.
(§3) To prepare cells for a histamine receptor assay, growth medium is aspirated, and the cells are rinsed with calcium-free, magnesium-free phosphate-buffered saline. The rinse is aspirated and replaced with Versene (Invitrogen, Inc.) and the cells incubated for two to three minutes at 37° C., followed by tapping the plate to fully dislodge cells. Assay medium (DMEM:F12 [50:50], phenol-red free, containing 1 mg/ml protease-free bovine serum albumin) is added to collect the cells, which are then transferred to a conical tube for centrifugation. The cell pellet is re-suspended in assay medium, and the cell density is determined by counting with a hemacytometer. The cells are then centrifuged again and re-suspended in assay medium to a final density of 5×10^6 cells/ml. Coelenterazine-h dye (500 μM in ethanol) is then added to a final concentration of 5 μM, and mixed immediately. The conical tube containing the cells is then wrapped with foil to protect the light sensitive dye. The cells are incubated for four hours further at normal room temperature (approximately 21° C.) with vertical rotation to keep them in suspension.
(§4) Just before assay, the dye-loaded cells are diluted to 0.75×10^6 cells/ml (H1 receptor) or 1.5×10^6 cells/ml (H4 receptor) with additional assay medium. Cells are dispensed to 1536 well microtiter plates at 3 μl/well. To assay receptor antagonist activity, […] of 100× concentration test compounds in dimethyl sulfoxide (DMSO) are dispensed to the wells, one compound per well, by passive pin transfer, and the plates are incubated for 15 minutes at room temperature. Assay plates are then transferred to a Lumilux (Perkin-Elmer) bioluminescence plate reader equipped with an automated 1536 well disposable tip pipette. The pipette then dispenses 3 μl/well of agonist (histamine, at twice the final concentration, where final concentration is a previously determined EC80 for response), with concurrent bioluminescence detection.
(§5) CCD imaging capture on the Lumilux instrument includes a 5 second baseline read prior to agonist addition, generally with a 40 second complete read per plate. A decrease in bioluminescence signal (measured either as area-under-the-curve, or maximum signal amplitude minus minimum signal amplitude) correlates with receptor antagonism. Negative control activity is measured with DMSO lacking any test compound. For receptor antagonist assays, positive control activity is measured with diphenhydramine (2-Diphenylmethoxy-N,N-dimethylethylamine, 10 μM final concentration, H1 receptor) or JNJ7777120 (1-[(5-Chloro-1H-indol-2-yl)carbonyl]-4-methyl-piperazine, 10 μM final concentration, H4 receptor). For receptor agonist assays, positive activity is measured with histamine (10 μM final concentration). Efficacy is measured as a percentage of positive control activity.

Assay [2] addresses human histamine receptor type 4 (Homo sapiens, UniProt Q9H3N8). Briefly: In vitro histamine receptor cell-based assay, H4R antagonist (aequorin bioluminescence). To be noted: CHO-K1 cells expressing human H4 receptor, aequorin and Gα16; histamine at EC80.
Excerpt: as §1, §2, §3, §4, §5

Chain of human histamine receptor type 4 (Q9H3N8 whole entry): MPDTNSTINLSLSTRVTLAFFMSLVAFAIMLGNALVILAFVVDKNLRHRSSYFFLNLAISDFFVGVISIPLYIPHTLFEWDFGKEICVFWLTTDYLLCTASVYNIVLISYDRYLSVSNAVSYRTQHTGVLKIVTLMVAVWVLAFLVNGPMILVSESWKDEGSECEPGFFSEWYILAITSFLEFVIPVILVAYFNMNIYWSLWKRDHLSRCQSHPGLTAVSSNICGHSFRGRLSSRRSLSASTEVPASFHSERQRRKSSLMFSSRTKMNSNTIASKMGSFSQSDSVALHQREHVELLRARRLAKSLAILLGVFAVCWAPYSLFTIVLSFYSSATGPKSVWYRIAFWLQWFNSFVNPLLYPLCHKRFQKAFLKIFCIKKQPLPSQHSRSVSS
Chain of human histamine receptor type 1 (P35367 whole entry): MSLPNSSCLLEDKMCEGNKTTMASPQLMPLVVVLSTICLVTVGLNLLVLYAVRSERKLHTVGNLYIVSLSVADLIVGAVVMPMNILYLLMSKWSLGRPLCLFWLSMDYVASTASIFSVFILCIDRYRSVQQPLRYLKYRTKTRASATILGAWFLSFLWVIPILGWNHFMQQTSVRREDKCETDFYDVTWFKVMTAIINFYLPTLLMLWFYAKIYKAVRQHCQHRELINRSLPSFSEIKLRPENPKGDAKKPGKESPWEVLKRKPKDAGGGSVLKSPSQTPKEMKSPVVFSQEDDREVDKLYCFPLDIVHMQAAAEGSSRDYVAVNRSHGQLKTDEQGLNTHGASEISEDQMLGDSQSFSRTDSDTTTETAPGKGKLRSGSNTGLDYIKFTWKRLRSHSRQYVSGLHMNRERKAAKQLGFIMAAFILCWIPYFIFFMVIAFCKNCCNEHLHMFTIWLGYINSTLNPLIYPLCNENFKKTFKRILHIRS

Take `CCn1c2ccccc2c2cc(CN3CCCC(c4ccn[nH]4)C3)ccc21` (stereo not drawn) [Example 1, 3-((3-(1H-pyrazol-5-yl)piperidin-1-yl)methyl)-9-ethyl-9H-carbazole]: the IC50 – broadly, the point on the concentration scale where inhibition reaches its midpoint – turned out to be 0.54 µM in assay [1] and 1.07 µM in assay [2].

For `CCn1c2ccccc2c2cc(CN3CCOCC3)ccc21` [Example 2, 4-((9-Ethyl-9H-carbazol-3-yl)methyl)morpholine], the IC50 worked out at 11.1 µM in assay [1] and 2.23 µM in assay [2].

Turning to `CCn1c2ccccc2c2cc(CN3CCC(O)CC3)ccc21` [Example 3, 1-((9-Ethyl-9H-carbazol-3-yl)methyl)piperidin-4-ol], the IC50 was 3.12 µM in assay [1] and 3.06 µM in assay [2].

For the molecule `CCn1c2ccccc2c2cc(CN3CC(C)CC(C)C3)ccc21` (stereo not drawn) [Example 4, 3-((3,5-Dimethylpiperidin-1-yl)methyl)-9-ethyl-9H-carbazole], the values for the 50% inhibitory concentration (IC50) in assay [1] and in assay [2] were 18.2 µM and 9.62 µM, respectively.

For `CCn1c2ccccc2c2cc(CN3CCC(C)CC3)ccc21` [Example 5, 9-Ethyl-3-((4-methylpiperidin-1-yl)methyl)-9H-carbazole], the IC50 stood at 5.94 µM in assay [1] and 8.09 µM in assay [2].

Regarding `CCn1c2ccccc2c2cc(CN3CCCC(C)C3)ccc21` (stereo not drawn) [Example 6, 9-Ethyl-3-((3-methylpiperidin-1-yl)methyl)-9H-carbazole], the IC50 in assay [1] was 5.97 µM; in assay [2] it was 4.39 µM.

With `CCOC(=O)C1CCCN(Cc2ccc3c(c2)c2ccccc2n3CC)C1` (stereo not drawn) [Example 7, Ethyl 1-((9-ethyl-9H-carbazol-3-yl)methyl)piperidine-3-carboxylate], the IC50 worked out at 5.57 µM in assay [1] and 3.83 µM in assay [2].

Regarding `CCn1c2ccccc2c2cc(CN3CCCC3)ccc21` [Example 8, 9-Ethyl-3-(pyrrolidin-1-ylmethyl)-9H-carbazole], the IC50 in assay [1] was 7.55 µM; in assay [2], 8.5 µM.

`CCn1c2ccccc2c2cc(CN3CCNCC3)ccc21` [Example 9, 9-Ethyl-3-(piperazin-1-ylmethyl)-9H-carbazole]: the IC50 in assay [1] was 46.4 µM; in assay [2], 12.6 µM.

For `CCn1c2ccccc2c2cc(CN3CCCC(C(N)=O)C3)ccc21` (stereo not drawn) [Example 10, 1-((9-Ethyl-9H-carbazol-3-yl)methyl)piperidine-3-carboxamide], the IC50 is 0.68 µM in assay [1] and 0.18 µM in assay [2].

For the molecule `CCn1c2ccccc2c2cc(CN3CCCC(C(=O)O)C3)ccc21` (stereo not drawn) [Example 11, 1-((9-Ethyl-9H-carbazol-3-yl)methyl)piperidine-3-carboxylic acid], the IC50 turned out to be 9.91 µM in assay [1] and 6.15 µM in assay [2].

As to `CCn1c2ccccc2c2cc(CN3CCCC(CO)C3)ccc21` (stereo not drawn) [Example 12, (1-((9-Ethyl-9H-carbazol-3-yl)methyl)piperidin-3-yl)methanol], the values for the IC50 in assay [1] and in assay [2] were 3.16 µM and 1.46 µM, respectively.

For the molecule `CCn1c2ccccc2c2cc(CN3CCCC(C#N)C3)ccc21` (stereo not drawn) [Example 13, 1-((9-Ethyl-9H-carbazol-3-yl)methyl)piperidine-3-carbonitrile], the IC50 was determined as 2.56 µM in assay [1] and 1.03 µM in assay [2].

Regarding `CCn1c2ccccc2c2cc(CN3CCCC(c4nnn[nH]4)C3)ccc21` (stereo not drawn) [Example 14, 3-((3-(1H-tetrazol-5-yl)piperidin-1-yl)methyl)-9-ethyl-9H-carbazole], the IC50 in assay [1] came to 0.69 µM; in assay [2], 0.33 µM.

`c1ccc2c(c1)[nH]c1ccc(CN3CCCC(c4ccn[nH]4)C3)cc12` (stereo not drawn) [Example 15, 3-((3-(1H-pyrazol-5-yl)piperidin-1-yl)methyl)-9H-carbazole]: the figures for the IC50 in assay [1] and in assay [2] were 37.6 µM and 52.6 µM, respectively.

With `CCn1c2ccccc2c2cc(CN3CCCC(C(=O)NC)C3)ccc21` (stereo not drawn) [Example 16, 1-((9-ethyl-9H-carbazol-3-yl)methyl)-N-methylpiperidine-3-carboxamide], the IC50 came out at 0.95 µM in assay [1] and 0.34 µM in assay [2].

Turning to `CCn1c2ccccc2c2cc(CN3CCCC(c4ncc[nH]4)C3)ccc21` (stereo not drawn) [Example 17, 3-((3-(1H-imidazol-2-yl)piperidin-1-yl)methyl)-9-ethyl-9H-carbazole], the IC50 is 0.53 µM in assay [1] and 2.28 µM in assay [2].

As to `CCn1c2ccccc2c2cc(CN3CCCC(n4ccnn4)C3)ccc21` (stereo not drawn) [Example 18, 3-((3-(1H-1,2,3-triazol-1-yl)piperidin-1-yl)methyl)-9-ethyl-9H-carbazole], the values for the IC50 in assay [1] and in assay [2] were 1.72 µM and 2.28 µM, respectively.

`CCn1c2ccccc2c2cc(CN3CCCC(c4nnc[nH]4)C3)ccc21` (stereo not drawn) [Example 19, 3-((3-(4H-1,2,4-Triazol-3-yl)piperidin-1-yl)methyl)-9-ethyl-9H-carbazole]: the IC50 is 0.59 µM in assay [1] and 0.99 µM in assay [2].

For the molecule `CCn1c2ccccc2c2cc(CN3CCCC(C(=O)N(C)C)C3)ccc21` (stereo not drawn) [Example 20, 1-((9-ethyl-9H-carbazol-3-yl)methyl)-N,N-dimethylpiperidine-3-carboxamide], the IC50 in assay [1] is 3.38 µM; in assay [2] it was 1.1 µM.

Consider `CCn1c2ccccc2c2cc(CN3CCCC(c4cnc[nH]4)C3)ccc21` (stereo not drawn) [Example 21, 3-((3-(1H-Imidazol-5-yl)piperidin-1-yl)methyl)-9-ethyl-9H-carbazolee], for which the IC50 in assay [1] stood at 1.35 µM; in assay [2], 2.75 µM.

As to `CCn1c2c(c3cc(CN4CCCC(c5ccn[nH]5)C4)ccc31)CCCC2` (stereo not drawn) [Example 22, 6-((3-(1H-pyrazol-5-yl)piperidin-1-yl)methyl)-9-ethyl-2,3,4,9-tetrahydro-1H-carbazole], the IC50 in assay [1] came to 8.72 µM; in assay [2], 5.9 µM.

As to `CCn1c2ccccc2c2cc(CN3CCCC(c4cnn[nH]4)C3)ccc21` (stereo not drawn) [Example 23, 3-((3-(1H-1,2,3-triazol-5-yl)piperidin-1-yl)methyl)-9-ethyl-9H-carbazole], the IC50 is 0.09 µM in assay [1] and 0.96 µM in assay [2].

For the molecule `CCn1c2ccccc2c2cc(CN3CCCC(c4cn[nH]c4)C3)ccc21` (stereo not drawn) [Example 24, 3-((3-(1H-pyrazol-4-yl)piperidin-1-yl)methyl)-9-ethyl-9H-carbazole], the figures for the IC50 in assay [1] and in assay [2] were 0.57 µM and 4.34 µM, respectively.

Consider `CCn1c2ccccc2c2cc(CN3CCN(C)CC3)ccc21` [Example 25, 9-ethyl-3-((4-methylpiperazin-1-yl)methyl)-9H-carbazole], for which the results for the IC50 in assay [1] and in assay [2] were 2.58 µM and 0.66 µM, respectively.

Take `CN(C)CCCn1c2ccccc2c2cc(CN3CCCC(c4ccn[nH]4)C3)ccc21` (stereo not drawn) [Example 26, 3-(3-((3-(1H-pyrazol-5-yl)piperidin-1-yl)methyl)-9H-carbazol-9-yl)-N,N-dimethylpropan-1-amine]: the figures for the IC50 in assay [1] and in assay [2] were 21.1 µM and 19.8 µM, respectively.

For `CN(C)CCCn1c2ccccc2c2cc(CN3CCCC(C(N)=O)C3)ccc21` (stereo not drawn) [Example 27, 1-((9-(3-(dimethylamino)propyl)-9H-carbazol-3-yl)methyl)piperidine-3-carboxamide], the IC50 in assay [1] and in assay [2] was above 30 µM throughout.

In the case of `CN(C)CCCn1c2ccccc2c2cc(CN3CCCC(N)C3)ccc21` (stereo not drawn) [Example 28, 1-((9-(3-(dimethylamino)propyl)-9H-carbazol-3-yl)methyl)piperidin-3-amine], the IC50 in assay [1] was above 30 µM; in assay [2], 55.9 µM.

As for `CCn1c2ccccc2c2ccc(CN3CCCC(c4ccn[nH]4)C3)cc21` (stereo not drawn) [Example 29, 2-((3-(1H-pyrazol-5-yl)piperidin-1-yl)methyl)-9-ethyl-9H-carbazole], the IC50 in assay [1] came to 6.74 µM; in assay [2], 32.1 µM.

Turning to `CCn1c2ccccc2c2cccc(CN3CCCC(c4ccn[nH]4)C3)c21` (stereo not drawn) [Example 30, 1-((3-(1H-pyrazol-5-yl)piperidin-1-yl)methyl)-9-ethyl-9H-carbazole], the IC50 in assay [1] is above 100 µM; in assay [2] it was 37.4 µM.

For the origin of these results see patent US8080566B1, “Carbazole inhibitors of histamine receptors for the treatment of disease” (Kalypsys, Inc, priority 2008, dated 2011).
